From patent US20260007684A1, “AMIDE DERIVATIVES FOR INHIBITING NLRP3 AND USES THEREOF” (Ventus Therapeutics U.S., Inc., priority 2023, published 2026)

Each compound was assayed against human NLRP3 (Homo sapiens (Human), UniProt Q96P20) (assay: Scintillation Proximity (SPA) NLRP3 Assay: displacement of 3H-MCC950). Conditions: SPA IC50, displacement of 3H-MCC950.
Format: binding

Sequence of human NLRP3 (Q96P20 whole entry): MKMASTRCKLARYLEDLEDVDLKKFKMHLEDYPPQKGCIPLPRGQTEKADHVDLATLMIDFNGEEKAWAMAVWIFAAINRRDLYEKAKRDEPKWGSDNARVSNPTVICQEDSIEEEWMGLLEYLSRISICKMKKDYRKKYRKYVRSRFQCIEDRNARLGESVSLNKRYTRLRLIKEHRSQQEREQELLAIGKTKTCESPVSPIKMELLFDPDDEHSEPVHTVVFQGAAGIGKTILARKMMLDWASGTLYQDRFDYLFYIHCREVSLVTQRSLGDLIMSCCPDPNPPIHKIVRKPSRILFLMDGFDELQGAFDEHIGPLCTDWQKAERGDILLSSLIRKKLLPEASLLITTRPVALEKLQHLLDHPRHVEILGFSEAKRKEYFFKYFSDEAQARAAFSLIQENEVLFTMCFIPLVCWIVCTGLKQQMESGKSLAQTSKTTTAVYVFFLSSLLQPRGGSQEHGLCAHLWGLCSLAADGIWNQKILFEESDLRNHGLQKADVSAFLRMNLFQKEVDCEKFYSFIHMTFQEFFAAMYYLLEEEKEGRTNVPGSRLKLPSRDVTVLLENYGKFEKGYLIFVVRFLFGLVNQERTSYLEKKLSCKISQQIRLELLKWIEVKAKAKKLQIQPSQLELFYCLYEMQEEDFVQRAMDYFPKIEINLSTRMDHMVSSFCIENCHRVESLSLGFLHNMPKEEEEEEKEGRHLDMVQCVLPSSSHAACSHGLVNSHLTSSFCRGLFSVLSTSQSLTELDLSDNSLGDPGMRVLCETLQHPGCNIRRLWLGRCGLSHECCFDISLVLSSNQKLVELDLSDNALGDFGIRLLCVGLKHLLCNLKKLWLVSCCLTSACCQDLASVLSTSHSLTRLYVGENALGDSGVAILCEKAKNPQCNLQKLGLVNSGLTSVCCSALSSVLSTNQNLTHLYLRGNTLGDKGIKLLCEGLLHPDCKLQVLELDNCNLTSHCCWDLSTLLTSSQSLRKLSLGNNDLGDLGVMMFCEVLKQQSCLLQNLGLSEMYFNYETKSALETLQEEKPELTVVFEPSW

SMILES | IC50 [µM]
C[C@@H]1C[C@H]2CC[C@@H]([C@@H](NC(=O)C3(c4ccc(C(F)(F)F)cc4)CC3)C1)N2c1nnn[nH]1 [104D*, N-((1S,2S,4S,6R)-4-methyl-9-(1H-tetrazol-5-yl)-9-azabicyclo[4.2.1]nonan-2-yl)-1-(4-(trifluoromethyl)phenyl)cyclopropane-1-carboxamide] | 10 to 50
O=C(N[C@@H]1CCC[C@@H]2CC[C@H]1N2c1nnn[nH]1)C1(c2ccc(Cl)cc2)CC1 (single isomer, unassigned) [9A*, N-(9-(1H-tetrazol-5-yl)-9-azabicyclo[4.2.1]nonan-2-yl)-1-(4-chlorophenyl)cyclopropane-1-carboxamide] | 1 to 10

Same assay, conditions: displacement of 3H-MCC950; read-out: SPA IC50

IC50 [µM] | SMILES
< 1 | C[C@H]1CCN(c2nnn[nH]2)C[C@@H](NC(=O)C2(c3ccc(Cl)cc3O)CC2)C1 (single isomer, unassigned) [60D*]
10 to 50 | Cc1ccc(C2(C(=O)N[C@H]3C[C@@H](C)CCN(c4nnn[nH]4)C3)CC2)cc1 (single isomer, unassigned) [71D*]
50 to 100 | C[C@H]1CCN(c2nnn[nH]2)C[C@H](NC(=O)C2(c3ccc(Br)cc3)CC2)C1 (single isomer, unassigned) [59C*]
> 100 | C[C@@H]1CC[C@@H](NC(=O)C2(c3ccc(Cl)cc3)CC2)CN(c2nnn[nH]2)C1 (single isomer, unassigned) [36C*, 1-(4-chlorophenyl)-N-(6-methyl-1-(1H-tetrazol-5-yl)azepan-3-yl)cyclopropane-1-carboxamide]
> 100 | C[C@H]1CCN(c2nnn[nH]2)C[C@H](NC(=O)C2(c3ccc(C(F)F)cc3O)CC2)C1 (single isomer, unassigned) [30C*, 1-(4-(difluoromethyl)-2-hydroxyphenyl)-N-(5-methyl-1-(1H-tetrazol-5-yl)azepan-3-yl)cyclopropane-1-carboxamide]
1 to 10 | C[C@H]1CCN(c2nnn[nH]2)C[C@@H](NC(=O)C2(c3ccc(OC(F)(F)F)c(F)c3O)CC2)C1 (single isomer, unassigned) [28D*, 1-(3-fluoro-2-hydroxy-4-(trifluoromethoxy)phenyl)-N-(5-methyl-1-(1H-tetrazol-5-yl)azepan-3-yl)cyclopropane-1-carboxamide]
< 1 | C[C@H]1CCN(c2nnn[nH]2)C[C@@H](NC(=O)C2(c3ccc(C(F)(F)F)cc3O)CC2)C1 (single isomer, unassigned) [63D*]
1 to 10 | C[C@@H]1CCN(c2nnn[nH]2)C[C@@H](NC(=O)C2(c3ccc(Br)cc3)CC2)C1 (single isomer, unassigned) [59B*]
10 to 50 | Cc1ccc(C2(C(=O)N[C@@H]3C[C@@H](C)CCN(c4nnn[nH]4)C3)CC2)c(O)c1F (single isomer, unassigned) [74C*]
> 100 | C[C@H]1CCN(c2nnn[nH]2)C[C@H](NC(=O)C2(c3ccc(SC(F)(F)F)cc3)CC2)C1 (single isomer, unassigned) [69C*]
1 to 10 | Cc1cc(C2(C(=O)N[C@@H]3C[C@H](C)CCN(c4nnn[nH]4)C3)CC2)ccc1C(F)(F)F (single isomer, unassigned) [6A*, N-(5-methyl-1-(1H-tetrazol-5-yl)azepan-3-yl)-1-(3-methyl-4-(trifluoromethyl)phenyl)cyclopropane-1-carboxamide]
10 to 50 | C[C@@H]1CCN(c2nnn[nH]2)C[C@@H](NC(=O)C2(c3cc(F)c(C(F)(F)F)cc3F)CC2)C1 (single isomer, unassigned) [7B*, 1-(2,5-difluoro-4-(trifluoromethyl)phenyl)-N-(5-methyl-1-(1H-tetrazol-5-yl)azepan-3-yl)cyclopropane-1-carboxamide]
10 to 50 | C[C@H]1CCN(c2nnn[nH]2)C[C@H](NC(=O)C2(c3ccc(OC(F)F)cc3O)CC2)C1 (single isomer, unassigned) [70C*]
1 to 10 | C[C@H]1CCN(c2nnn[nH]2)C[C@@H](NC(=O)C2(c3ccc(OC(F)(F)F)cc3O)CC2)C1 (single isomer, unassigned) [62D*]
10 to 50 | O=C(N[C@H]1CN(c2nnn[nH]2)CC[C@@H]1F)C1(c2ccc(Cl)cc2)CC1 [Compound 50C, 1-(4-chlorophenyl)-N-[(3S,4S)-4-fluoro-1-(1H-tetrazol-5-yl)-3-piperidyl]cyclopropanecarboxamide]
10 to 50 | C[C@H]1CCN(c2nnn[nH]2)C[C@H](NC(=O)C2(c3ccc(C(F)(F)F)c(F)c3O)CC2)C1 (single isomer, unassigned) [31C*, 1-(3-fluoro-2-hydroxy-4-(trifluoromethyl)phenyl)-N-(5-methyl-1-(1H-tetrazol-5-yl)azepan-3-yl)cyclopropane-1-carboxamide]
> 100 | C[C@H]1CCN(c2nnn[nH]2)C[C@H](NC(=O)C2(c3ccc(OC(F)F)cc3F)CC2)C1 (single isomer, unassigned) [3C*]
50 to 100 | C[C@H]1CCN(c2nnn[nH]2)C[C@H](NC(=O)C2(c3ccc(C4CC4)c(F)c3O)CC2)C1 (single isomer, unassigned) [32C*, 1-(4-cyclopropyl-3-fluoro-2-hydroxyphenyl)-N-(5-methyl-1-(1H-tetrazol-5-yl)azepan-3-yl)cyclopropane-1-carboxamide]
> 100 | C[C@H]1[C@H](NC(=O)C2(c3ccc(Cl)cc3)CC2)CCCN1c1nnn[nH]1 [Compound 40C, 1-(4-chlorophenyl)-N-[(2S,3R)-2-methyl-1-(1H-tetrazol-5-yl)-3-piperidyl]cyclopropanecarboxamide]
> 100 | C[C@H]1CCN(c2nnn[nH]2)C[C@H](NC(=O)C2(c3ccc(C(F)(F)F)cc3F)CC2)C1 (single isomer, unassigned) [68C*]
50 to 100 | C[C@H]1CCN(c2nnn[nH]2)C[C@H](NC(=O)C2(c3ccc(OC(F)(F)F)cc3F)CC2)C1 (single isomer, unassigned) [64C*]
50 to 100 | C[C@@H]1CC[C@@H](NC(=O)C2(c3ccc(C4CC4)cc3O)CC2)CN(c2nnn[nH]2)C1 (single isomer, unassigned) [91C*]
1 to 10 | Cc1ccc(C2(C(=O)N[C@H]3C[C@@H](C)CCN(c4nnn[nH]4)C3)CC2)c(O)c1F (single isomer, unassigned) [74D*]
10 to 50 | C[C@@H]1CCN(c2nnn[nH]2)C[C@@H](NC(=O)C2(c3ccc(C(F)(F)F)c(OC(F)F)c3)CC2)C1 (single isomer, unassigned) [54B*]
1 to 10 | C[C@H]1CCN(c2nnn[nH]2)C[C@@H](NC(=O)C2(c3ccc(Cl)c(F)c3F)CC2)C1 (single isomer, unassigned) [4D*, 1-(4-chloro-2,3-difluorophenyl)-N-(5-methyl-1-(1H-tetrazol-5-yl)azepan-3-yl)cyclopropane-1-carboxamide]
10 to 50 | C[C@@H]1CCN(c2nnn[nH]2)C[C@@H](NC(=O)C2(c3ccc(Cl)cc3Cl)CC2)C1 (single isomer, unassigned) [55B*]
< 1 | Cc1ccc(C2(C(=O)N[C@H]3C[C@H](C)CCN(c4nnn[nH]4)C3)CC2)c(O)c1 (single isomer, unassigned) [67B*]
1 to 10 | Cc1ccc(C2(C(=O)N[C@H]3C[C@H](C)CCN(c4nnn[nH]4)C3)CC2)c(O)c1F (single isomer, unassigned) [74B*]
> 100 | O=C(N[C@@H]1C[C@H](F)CN(c2nnn[nH]2)C1)C1(c2ccc(Cl)cc2)CC1 [Compound 44A, 1-(4-chlorophenyl)-N-[(3R,5S)-5-fluoro-1-(1H-tetrazol-5-yl)-3-piperidyl]cyclopropanecarboxamide]
10 to 50 | C[C@H]1CCN(c2nnn[nH]2)C[C@H](NC(=O)C2(c3ccc(OC(F)F)c(F)c3)CC2)C1 (single isomer, unassigned) [73C*]

SMILES | IC50 [µM]
O=C(N[C@H]1CCC[C@@H]2CC[C@H]1N2c1nnn[nH]1)C1(c2ccc(C(F)(F)F)cc2O)CC1 [88B*, N-((1R,2S,6R)-9-(1H-tetrazol-5-yl)-9-azabicyclo[4.2.1]nonan-2-yl)-1-(2-hydroxy-4-(trifluoromethyl)phenyl)cyclopropane-1-carboxamide] | < 1
C[C@H]1C[C@@H](NC(=O)C2(c3ccc(OC(F)F)cc3)CC2)[C@@H]2CC[C@H]1N2c1nnn[nH]1 (single isomer, unassigned) [35C*] | > 100
C[C@H]1C[C@H](NC(=O)C2(c3ccc(C4CC4(F)F)cc3)CC2)[C@@H]2CC[C@H]1N2c1nnn[nH]1 (single isomer, unassigned) [37D*] | > 100
C[C@H]1C[C@H](NC(=O)C2(c3ccc(OC(F)F)cc3)CC2)[C@H]2CC[C@@H]1N2c1nnn[nH]1 (single isomer, unassigned) [35F*] | 50 to 100
O=C(N[C@H]1CC[C@@H]2CC[C@H]1N2c1nnn[nH]1)C1(c2ccc(OC(F)F)cc2O)CC1 [77B*, N-((1R,2S,5R)-8-(1H-tetrazol-5-yl)-8-azabicyclo[3.2.1]octan-2-yl)-1-(4-(difluoromethoxy)-2-hydroxyphenyl)cyclopropane-1-carboxamide] | 10 to 50
C[C@@H]1C[C@H](NC(=O)C2(c3ccc(C(F)(F)F)cc3)CC2)[C@H]2CC[C@@H]1N2c1nnn[nH]1 [79B*, N-((1R,2S,4R,5S)-4-methy1-8-(1H-tetrazol-5-yl)-8-azabicyclo[3.2.1]octan-2-yl)-1-(4-(trifluoromethyl)phenyl)cyclopropane-1-carboxamide] | 10 to 50
C[C@H]1C[C@@H](NC(=O)C2(c3ccc(SC(F)F)cc3)CC2)[C@@H]2CC[C@H]1N2c1nnn[nH]1 [85C*, 1-(4-((difluoromethyl)thio)phenyl)-N-((1S,2R,4S,5R)-4-methyl-8-(1H-tetrazol-5-yl)-8-azabicyclo[3.2.1]octan-2-yl)cyclopropane-1-carboxamide] | > 100
C[C@H]1C[C@H](NC(=O)C2(c3ccc(SC(F)F)cc3)CC2)[C@@H]2CC[C@H]1N2c1nnn[nH]1 [85D*, 1-(4-((difluoromethyl)thio)phenyl)-N-((1S,2S,4S,5R)-4-methy1-8-(1H-tetrazol-5-yl)-8-azabicyclo[3.2.1]octan-2-yl)cyclopropane-1-carboxamide] | > 100
C[C@@H]1C[C@H](NC(=O)C2(c3ccc(OC(F)F)cc3)CC2)[C@@H]2CC[C@H]1N2c1nnn[nH]1 (single isomer, unassigned) [35H*] | > 100
C[C@@H]1C[C@H](NC(=O)C2(c3ccc(C4CC4(F)F)cc3)CC2)[C@H]2CC[C@@H]1N2c1nnn[nH]1 (single isomer, unassigned) [37B*] | 10 to 50
